Consider 3 molecules from patent US20050142531A1, “Peptidically buffered formulations for electrotransport applications and methods of making” (priority 2003, published 2005).

For series [1] the following is noted: cited from earlier work.
Series [2] can be described thus: Conductivities and solubilities of selected multipeptides at their pI. It is filed as physicochemical. The text has this:
Table 1 lists conductivities and solubilities of selected multipeptides useful in the present invention, at their pI. The pH buffering capacity of the peptidic buffers of the present invention can be explained by using Gly-His at pH 7.5 as an example (the pI of Gly-His is 7.55). At this pH, the net charge of the molecule is essentially zero. At the pI, three species coexist. The bulk of the molecule (70%) consists of the neutral species that bears two internal charges, one positive and one negative resulting in a net charge of zero. […] Although there are small percentages of species presenting a net positive or negative charge in solution, there is minimal ionic transport of these charged species due to charge equilibrium between the three species (i.e., a positive charge migrating in the electric field will revert almost instantly to its neutral form and lose momentum or to its negative form and migrate backward). Thus, there is little if any ionic transport of the charged peptides into the systemic circulation of the patient. Due to the same principle of charge equilibrium, any depletion of the charged molecules will be compensated immediately by dissociation of the neutral form to its charged species thereby providing a reservoir insuring long term pH stability. In addition, if loss of the molecule occurs by electroosmosis of the neutral species, this will not result in any pH changes.

Series [3] in a line: pKa, pI and % salt of peptidic buffers. It is filed as physicochemical.

SMILES strings stand for the structures. Values after ≈ are worked out from the molar mass of the structure shown. Structures can show the parent of a compound that is named as a salt. Peptide text beside a SMILES is read from it.

Consider `CO/N=C(\C(=O)N[C@@H]1C(=O)N2C(C(=O)O)=C(CSc3nc(C)c(CC(=O)O)s3)CS[C@H]12)c1csc(N)n1` [Cefodizime disodium salt], for which the “pKa (first value)” value in series [1] (first listed) is 2.85. The “pKa (second value)” value in series [1] (second listed) is 3.37. For the same molecule, the “pKa (third value)” value in series [1] (third listed) is 4.18.

In turn, `CC(C)[C@H](N)C(=O)N[C@@H](Cc1c[nH]cn1)C(=O)O` [Val-His] (H-Val-His-OH; N-terminus and C-terminus assumed) displayed a pI in series [2] (Table 1) of 7.38. Moreover, the Solubility (commonly the dissolved amount per volume that the medium holds) in series [2] (at pI) was 200 mM (≈ 50.9 mg/mL). In addition, in series [3] (Table 2, first acidic pKa), the “pka A (acidic pKa)” value was 3.09. In addition, the “pka B (basic pKa)” value in series [3] (Table 2, first basic pKa) stood at 6.83; in series [3] (Table 2, second basic pKa), 7.94.

For `CO/N=C(\C(=O)N[C@@H]1C(=O)N2C(C(=O)O)=C(CSc3nc(=O)c(=O)[nH]n3C)CS[C@H]12)c1csc(N)n1` [ceftriaxone], the “pKa (amine)” value in series [1] (amine) is given as 3.2. In addition, the “pKa (carboxylic)” value in series [1] (carboxylic) was 3. For the same molecule, the “pKa (enolic OH)” value in series [1] (enolic OH) is listed as 4.1.
